Measured values reported in paper PMC3898920 (PLoS ONE, 2014).

Experiments:
[1] = Steady-state plasma pharmacokinetics of rifabutin and 25-O-desacetylrifabutin, alone and with lopinavir/ritonavir; conditions: for AUC: AUCτ; for C0: pre-dose
[2] = co-administered RMP; trial protocol background; cited from earlier work
[3] = Plasma lopinavir and ritonavir pharmacokinetics during rifabutin co-administration; conditions: for Effect of the different doses of rifabutin on plasma concentrations: rifabutin 150 mg OD vs 150 mg TPW
[4] = design: method as in earlier work; conditions: study from the University of Cape Town; trial protocol background; cited from earlier work
[5] = Adverse events during the trial
[6] = South Africa, cited from earlier work
[7] = rifabutin 150 mg OD with lopinavir/ritonavir, end of dosing interval 24 h, median (range)
[8] = rifabutin 150 mg OD with lopinavir/ritonavir, median (range)
[9] = rifabutin 150 mg TPW plus LPV/r vs rifabutin 300 mg OD alone
[10] = rifabutin 150 mg TPW with lopinavir/ritonavir, median (range)
[11] = rifabutin 300 mg OD alone, median (range)
[12] = All patients, pooled whatever the RBT dosing, median (range)
[13] = LPV/r 400 mg/100 mg twice daily with RBT 150 mg OD, median (range)
[14] = rifabutin 150 mg OD plus LPV/r vs rifabutin 300 mg OD alone
[15] = LPV/r 400 mg/100 mg twice daily with RBT 150 mg TPW, median (range)

**Q.** What does the source list for “25-O-desacetylrifabutin [25-O desacetyl rifabutin]”?
**A.** Cmin n = 15 [1, 7]: 114 (73 – 253) ng/mL; Cmin n = 25 [1, 7]: 115 (59 – 253) ng/mL; Tmax [1, 8]: 4 (2 – 8) h; C0 geometric mean ratio (90% CI) [1, 9]: 4.35 (3.14;6.02); Cmin n = 15 ([1]; rifabutin 150 mg TPW with lopinavir/ritonavir, end of dosing interval 48 h, median (range)): 67 (11 – 214) ng/mL; Tmax [1, 10]: 4 (2 – 6) h; Cmin n = 15 ([1]; rifabutin 300 mg OD alone, end of dosing interval 24 h, median (range)): 6 (0 – 33) ng/mL; Tmax [1, 11]: 3 (0 – 5) h

**Q.** Which “Reduction of bioavailability by RMP” value [2] does the source give for `O=C1Nc2ccc(Cl)cc2[C@@](C#CC2CC2)(C(F)(F)F)O1` [EFV, efavirenz] here?
**A.** approximately 25%

**Q.** Which “C0 (trough concentration)” value [3, 12] does the source give for `Cc1cccc(C)c1OCC(=O)N[C@@H](Cc1ccccc1)[C@@H](O)C[C@H](Cc1ccccc1)NC(=O)[C@H](C(C)C)N1CCCNC1=O` [Lopinavir] here?
**A.** 8739 (<50– 31171) ng/mL

**Q.** And the “C0 (trough concentration)” value [3, 13]?
**A.** 9155 (399–27567) ng/mL

**Q.** What about the “Effect of the different doses of rifabutin on plasma concentrations” value [3] of the same compound?
**A.** no significant effect

**Q.** Which “Reduction of bioavailability by RMP” value [2] does the source give for `Cc1ccnc2c1NC(=O)c1cccnc1N2C1CC1` [NVP, nevirapine] here?
**A.** 35%

**Q.** With `CO[C@H]1/C=C/O[C@@]2(C)Oc3c(C)c(O)c4c(O)c(c(/C=N/N5CCN(C)CC5)c(O)c4c3C2=O)NC(=O)/C(C)=C\C=C\[C@H](C)[C@H](O)[C@@H](C)[C@@H](O)[C@@H](C)[C@H](OC(C)=O)[C@@H]1C` [RMP, rifampicin] as the compound, how does the “Reduction of drug concentrations by HIV infection” value [4] read?
**A.** 39%

**Q.** With `CO[C@H]1/C=C/O[C@@]2(C)Oc3c(C)c(O)c4c(c3C2=O)C2=NC3(CCN(CC(C)C)CC3)NC2=C(NC(=O)/C(C)=C\C=C\[C@H](C)[C@H](O)[C@@H](C)[C@@H](O)[C@@H](C)[C@H](OC(C)=O)[C@@H]1C)C4=O` [Rifabutin] as the compound, how does the Uveitis ([5]; 33 enrolled patients) read?
**A.** no uveitis

**Q.** And the Cases of neutropenia ([5]; 33 enrolled patients, one grade 3, none grade 4)?
**A.** 4

**Q.** And the “Total adverse events (all grades together)” value ([5]; 33 enrolled patients, rifabutin-based TB treatment with d4T/3TC/LPV/r, whole follow-up)?
**A.** 124

**Q.** What about the “Hepatic events with raised levels of liver enzymes” value ([5]; events occurring in 25 patients, 33 in the first 2 months, 23 after rifabutin was stopped) of the same compound?
**A.** 56

**Q.** What about the “Number of patients with AUCτ less than 4.5 µg.h/mL” value ([1]; 150 mg OD regimen with LPV/r) of the same compound?
**A.** one

**Q.** And the “Number of patients with AUCτ less than 4.5 µg.h/mL” value ([1]; 150 mg TPW regimen with LPV/r)?
**A.** four

**Q.** What about the “Number of patients with Cmax less than 0.3 µg/mL” value ([1]; 150 mg TPW regimen with LPV/r) of the same compound?
**A.** one

**Q.** And the “Number of patients with AUCτ less than 4.5 µg.h/mL” value ([1]; 300 mg OD regimen alone)?
**A.** six

**Q.** What about the Tmax ([1]; human, plasma, oral, 150 mg) of the same compound?
**A.** 3 h

**Q.** What about the AUC ([1]; human, plasma, oral, 150 mg, rifabutin 150 mg OD with lopinavir/ritonavir, τ 24 h, median (range)) of the same compound?
**A.** 7290 ng·h/mL

**Q.** What about the AUC ([1]; human, plasma, oral, 150 mg, rifabutin 150 mg TPW with lopinavir/ritonavir, τ 48 h, median (range)) of the same compound?
**A.** 7340 ng·h/mL

**Q.** What about the Cmax ([1]; human, plasma, oral, 150 mg, rifabutin 150 mg OD with lopinavir/ritonavir, median (range)) of the same compound?
**A.** 671 ng/mL

**Q.** And the Cmax ([1]; human, plasma, oral, 150 mg, rifabutin 150 mg TPW with lopinavir/ritonavir, median (range))?
**A.** 544 ng/mL

**Q.** And the AUC ([1]; human, plasma, oral, 300 mg, rifabutin 300 mg OD alone, τ 24 h, median (range))?
**A.** 5640 ng·h/mL

**Q.** And the Cmax ([1]; human, plasma, oral, 300 mg, rifabutin 300 mg OD alone, steady state, median (range))?
**A.** 792 ng/mL

**Q.** And the concentration at 24 h ([1]; human, plasma, oral, Cmin n = 15, rifabutin 150 mg OD with lopinavir/ritonavir, end of dosing interval 24 h, median (range))?
**A.** 161 ng/mL

**Q.** And the concentration at 48 h ([1]; human, plasma, oral, Cmin n = 15, rifabutin 150 mg TPW with lopinavir/ritonavir, end of dosing interval 48 h, median (range))?
**A.** 54 ng/mL

**Q.** What about the concentration at 24 h ([1]; human, plasma, oral, Cmin n = 15, rifabutin 300 mg OD alone, end of dosing interval 24 h, median (range)) of the same compound?
**A.** 61 ng/mL

**Q.** What about the concentration at 24 h ([1]; human, plasma, oral, Cmin n = 25, rifabutin 150 mg OD with lopinavir/ritonavir, end of dosing interval 24 h, median (range)) of the same compound?
**A.** 169 ng/mL

**Q.** What about the concentration at 24 h ([1]; human, plasma, oral, Cmin n = 25, rifabutin 300 mg OD alone, end of dosing interval 24 h, median (range)) of the same compound?
**A.** 79 ng/mL

**Q.** And the “AUCτ geometric mean ratio (90% CI)” value ([1]; rifabutin 150 mg OD plus LPV/r (AUC24h) vs rifabutin 300 mg OD alone)?
**A.** 1.32 (1.16;1.51)

**Q.** And the “C0 geometric mean ratio (90% CI)” value [1, 14]?
**A.** 2.61 (2.13;3.19)

**Q.** What about the “Cave geometric mean ratio (90% CI)” value [1, 14] of the same compound?
**A.** 1.32 (1.16;1.51)

**Q.** What about the “Cmax geometric mean ratio (90% CI)” value [1, 14] of the same compound?
**A.** 0.88 (0.75;1.04)

**Q.** And the “Cave (AUCτ/τ)” value [1, 8]?
**A.** 304 (147–521) ng/mL

**Q.** And the C0 [1, 8]?
**A.** 180 (121 – 310) ng/mL

**Q.** What about the “AUCτ geometric mean ratio (90% CI)” value ([1]; rifabutin 150 mg TPW plus LPV/r (AUC48h) vs rifabutin 300 mg OD alone) of the same compound?
**A.** 1.12 (0.92;1.37)

**Q.** And the “C0 geometric mean ratio (90% CI)” value [1, 9]?
**A.** 0.94 (0.73;1.21)

**Q.** What about the “Cave geometric mean ratio (90% CI)” value [1, 9] of the same compound?
**A.** 0.56 (0.46;0.69)

**Q.** What about the “Cmax geometric mean ratio (90% CI)” value [1, 9] of the same compound?
**A.** 0.65 (0.51;0.83)

**Q.** And the “Decrease in average steady state concentration (Cave)” value ([1]; rifabutin 150 mg TPW with LPV/r compared with rifabutin 300 mg alone)?
**A.** 44%

**Q.** And the “Decrease in Cmax” value ([1]; rifabutin 150 mg TPW with LPV/r vs rifabutin monotherapy)?
**A.** 35%

**Q.** And the “Cave (AUCτ/τ)” value [1, 10]?
**A.** 153 (30–227) ng/mL

**Q.** And the Tmax [1, 10]?
**A.** 3 (0 – 5) h

**Q.** And the C0 [1, 10]?
**A.** 70 (25 – 413) ng/mL

**Q.** And the “Mean increase in average steady state concentration (Cave)” value ([1]; rifabutin 150 mg daily with LPV/r compared with rifabutin 300 mg alone)?
**A.** 32%

**Q.** What about the “Cave (AUCτ/τ)” value [1, 11] of the same compound?
**A.** 235 (113–370) ng/mL

**Q.** And the C0 [1, 11]?
**A.** 74 (13 – 161) ng/mL

**Q.** What about the “Bioequivalence of Cave with rifabutin alone (90% CI within 0.80 to 1.25)” value ([1]; the two tested dosing regimens (150 mg OD, 150 mg TPW) combined with lopinavir/ritonavir) of the same compound?
**A.** failed to show bioequivalence

**Q.** What about the “AUCτ, median” value ([6]; 300 mg OD dose) of the same compound?
**A.** 3053 ng·h/mL

**Q.** What about the “Patients with areas under the curve less than 4.5 µg.h/mL” value ([6]; intermittent dose (three times a week) with LPV/r) of the same compound?
**A.** over 85%

**Q.** Which results are given for `CC(C)c1nc(CN(C)C(=O)N[C@H](C(=O)N[C@@H](Cc2ccccc2)C[C@H](O)[C@H](Cc2ccccc2)NC(=O)OCc2cncs2)C(C)C)cs1` [Ritonavir]?
**A.** C0 (trough concentration) [3, 12]: 303 (25–680) ng/mL; C0 (trough concentration) [3, 13]: 314 (25– 569) ng/mL; C0 (trough concentration) [3, 15]: 257 (25–680) ng/mL; Cmax [3, 15]: 816 (405–2484) ng/ml; Effect of the different doses of rifabutin on plasma concentrations [3]: no significant effect
